Experiments:
[1] = target: Dual specificity mitogen-activated protein kinase kinase 6 (Homo sapiens) (UniProt P52564); conditions: Compound concentration 100.0 nM
[2] = target: Vascular endothelial growth factor receptor 3 (Homo sapiens) (UniProt P35916); conditions: Compound concentration 100.0 nM
[3] = target: G protein-coupled receptor kinase 4 (Homo sapiens) (UniProt P32298); conditions: Compound concentration 100.0 nM
[4] = target: Tyrosine-protein kinase CSK (Homo sapiens) (UniProt P41240); conditions: Compound concentration 100.0 nM
[5] = target: 5-hydroxytryptamine receptor 2A (Homo sapiens) (UniProt P28223); conditions: Compound concentration 10.0 uM
5-hydroxytryptamine receptor 2A (Homo sapiens), sequence (P28223 whole entry): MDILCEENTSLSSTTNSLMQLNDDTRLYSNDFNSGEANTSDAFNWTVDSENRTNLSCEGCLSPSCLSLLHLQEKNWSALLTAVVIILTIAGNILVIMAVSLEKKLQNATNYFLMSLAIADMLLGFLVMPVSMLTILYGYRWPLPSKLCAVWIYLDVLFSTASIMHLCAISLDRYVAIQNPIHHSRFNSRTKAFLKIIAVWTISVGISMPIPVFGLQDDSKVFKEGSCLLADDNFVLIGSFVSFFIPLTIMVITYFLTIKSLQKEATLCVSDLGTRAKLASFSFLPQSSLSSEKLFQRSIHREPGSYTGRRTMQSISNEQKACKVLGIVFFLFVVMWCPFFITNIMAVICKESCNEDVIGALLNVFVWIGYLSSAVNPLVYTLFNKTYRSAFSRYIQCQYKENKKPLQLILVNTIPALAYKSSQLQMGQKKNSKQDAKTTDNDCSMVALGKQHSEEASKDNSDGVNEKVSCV

[6] = target: Cyclin-dependent kinase 2 (Homo sapiens) (UniProt P24941); conditions: Compound concentration 100.0 nM
[7] = target: Mitogen-activated protein kinase 10 (Homo sapiens) (UniProt P53779); conditions: Compound concentration 100.0 nM
[8] = target: Serine/threonine-protein kinase SIK2 (Homo sapiens) (UniProt Q9H0K1); conditions: Compound concentration 100.0 nM
Serine/threonine-protein kinase SIK2 (Homo sapiens), sequence (Q9H0K1 whole entry, looked up): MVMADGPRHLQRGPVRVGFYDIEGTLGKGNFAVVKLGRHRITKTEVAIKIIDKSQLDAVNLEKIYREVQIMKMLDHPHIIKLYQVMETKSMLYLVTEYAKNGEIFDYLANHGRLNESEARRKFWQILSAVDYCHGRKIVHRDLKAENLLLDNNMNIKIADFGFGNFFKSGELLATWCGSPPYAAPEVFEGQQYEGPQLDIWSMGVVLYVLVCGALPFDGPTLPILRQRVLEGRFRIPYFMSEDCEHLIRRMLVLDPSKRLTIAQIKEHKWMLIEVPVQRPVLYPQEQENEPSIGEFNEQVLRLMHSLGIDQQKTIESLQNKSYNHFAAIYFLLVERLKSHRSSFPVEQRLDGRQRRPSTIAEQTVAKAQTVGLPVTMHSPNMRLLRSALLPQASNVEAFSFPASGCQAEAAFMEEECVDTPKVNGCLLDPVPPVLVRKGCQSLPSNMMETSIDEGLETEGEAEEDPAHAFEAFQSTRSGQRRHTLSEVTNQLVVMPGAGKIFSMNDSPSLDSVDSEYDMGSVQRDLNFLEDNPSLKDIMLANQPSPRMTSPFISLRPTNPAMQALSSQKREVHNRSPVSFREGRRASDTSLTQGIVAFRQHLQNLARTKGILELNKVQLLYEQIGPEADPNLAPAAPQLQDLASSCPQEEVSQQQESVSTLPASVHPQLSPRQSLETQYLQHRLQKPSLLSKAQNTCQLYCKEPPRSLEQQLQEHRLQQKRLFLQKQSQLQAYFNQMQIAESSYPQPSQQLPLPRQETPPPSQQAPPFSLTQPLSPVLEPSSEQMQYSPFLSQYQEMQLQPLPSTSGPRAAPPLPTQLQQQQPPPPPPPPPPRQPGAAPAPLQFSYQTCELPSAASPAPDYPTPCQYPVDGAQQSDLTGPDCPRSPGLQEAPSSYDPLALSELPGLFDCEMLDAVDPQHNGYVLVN

[9] = target: Rho-associated protein kinase 1 (Homo sapiens) (UniProt Q13464); conditions: Compound concentration 100.0 nM
[10] = target: Serine/threonine-protein kinase pim-2 (Homo sapiens) (UniProt Q9P1W9); conditions: Compound concentration 100.0 nM
[11] = target: T1, Muscarinic acetylcholine receptor M1 (Homo sapiens) (UniProt P11229); conditions: Compound concentration 10.0 uM
T1 sequence (whole entry): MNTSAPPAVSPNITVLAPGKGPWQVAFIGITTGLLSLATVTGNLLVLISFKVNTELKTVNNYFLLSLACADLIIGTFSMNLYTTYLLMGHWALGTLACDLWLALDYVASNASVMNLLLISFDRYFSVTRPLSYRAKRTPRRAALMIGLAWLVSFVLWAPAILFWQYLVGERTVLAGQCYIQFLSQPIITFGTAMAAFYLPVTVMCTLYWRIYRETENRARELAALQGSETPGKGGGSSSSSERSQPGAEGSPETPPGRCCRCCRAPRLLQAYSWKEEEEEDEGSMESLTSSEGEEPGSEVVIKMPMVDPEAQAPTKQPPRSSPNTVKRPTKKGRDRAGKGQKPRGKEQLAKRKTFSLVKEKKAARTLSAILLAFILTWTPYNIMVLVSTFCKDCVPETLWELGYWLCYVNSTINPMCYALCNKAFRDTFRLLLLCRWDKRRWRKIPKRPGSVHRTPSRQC

[12] = system: Epidermal growth factor receptor (Homo sapiens), P00533 [L858R]; conditions: Compound concentration 100.0 nM
[13] = target: Myotonin-protein kinase (Homo sapiens) (UniProt Q09013); conditions: Compound concentration 100.0 nM
[14] = system: Proto-oncogene tyrosine-protein kinase receptor Ret (Homo sapiens), P07949 [V804M]; conditions: Compound concentration 100.0 nM
[15] = target: SRSF protein kinase 2 (Homo sapiens) (UniProt P78362); conditions: Compound concentration 100.0 nM
[16] = target: Phosphatidylinositol 4,5-bisphosphate 3-kinase catalytic subunit beta isoform (Homo sapiens) (UniProt P42338); conditions: Compound concentration 100.0 nM
[17] = target: Serine/threonine-protein kinase Nek5 (Homo sapiens) (UniProt Q6P3R8); conditions: Compound concentration 100.0 nM
Serine/threonine-protein kinase Nek5 (Homo sapiens), sequence (Q6P3R8 whole entry): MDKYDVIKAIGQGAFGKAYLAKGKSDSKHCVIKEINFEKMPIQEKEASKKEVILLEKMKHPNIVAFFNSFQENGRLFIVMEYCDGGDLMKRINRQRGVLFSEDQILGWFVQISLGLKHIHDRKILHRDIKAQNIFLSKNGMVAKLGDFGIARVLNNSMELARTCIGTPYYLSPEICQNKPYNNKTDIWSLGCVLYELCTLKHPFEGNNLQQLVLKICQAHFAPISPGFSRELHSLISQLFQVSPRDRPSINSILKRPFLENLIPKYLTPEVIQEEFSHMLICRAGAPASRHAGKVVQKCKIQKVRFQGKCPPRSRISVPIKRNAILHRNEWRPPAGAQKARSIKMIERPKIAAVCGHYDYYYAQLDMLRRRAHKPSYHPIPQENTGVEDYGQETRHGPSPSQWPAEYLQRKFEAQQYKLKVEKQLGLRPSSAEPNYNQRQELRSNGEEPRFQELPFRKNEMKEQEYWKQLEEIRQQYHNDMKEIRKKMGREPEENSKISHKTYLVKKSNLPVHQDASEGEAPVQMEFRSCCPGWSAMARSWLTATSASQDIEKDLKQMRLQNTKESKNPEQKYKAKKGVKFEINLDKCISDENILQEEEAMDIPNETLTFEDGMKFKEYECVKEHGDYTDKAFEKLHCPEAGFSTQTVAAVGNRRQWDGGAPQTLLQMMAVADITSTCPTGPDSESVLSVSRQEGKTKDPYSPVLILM

[18] = system: Tyrosine-protein kinase ABL1 (Homo sapiens), P00519 [E255K]; conditions: Compound concentration 100.0 nM
[19] = target: Serine/threonine-protein kinase PAK 2 (Homo sapiens) (UniProt Q13177); conditions: Compound concentration 100.0 nM
[20] = target: Calcium/calmodulin-dependent protein kinase kinase 1 (Homo sapiens) (UniProt Q8N5S9); conditions: Compound concentration 100.0 nM
[21] = target: Myosin light chain kinase, smooth muscle (Homo sapiens) (UniProt Q15746); conditions: Compound concentration 100.0 nM
[22] = target: RAC-gamma serine/threonine-protein kinase (Homo sapiens) (UniProt Q9Y243); conditions: Compound concentration 100.0 nM
[23] = system: Hepatocyte growth factor receptor (Homo sapiens), P08581 [Y1235D]; conditions: Compound concentration 100.0 nM
[24] = target: Myosin light chain kinase family member 4 (Homo sapiens) (UniProt Q86YV6); conditions: Compound concentration 100.0 nM
[25] = target: Dual specificity mitogen-activated protein kinase kinase 4 (Homo sapiens) (UniProt P45985); conditions: Compound concentration 100.0 nM
Dual specificity mitogen-activated protein kinase kinase 4 (Homo sapiens), sequence (P45985 whole entry): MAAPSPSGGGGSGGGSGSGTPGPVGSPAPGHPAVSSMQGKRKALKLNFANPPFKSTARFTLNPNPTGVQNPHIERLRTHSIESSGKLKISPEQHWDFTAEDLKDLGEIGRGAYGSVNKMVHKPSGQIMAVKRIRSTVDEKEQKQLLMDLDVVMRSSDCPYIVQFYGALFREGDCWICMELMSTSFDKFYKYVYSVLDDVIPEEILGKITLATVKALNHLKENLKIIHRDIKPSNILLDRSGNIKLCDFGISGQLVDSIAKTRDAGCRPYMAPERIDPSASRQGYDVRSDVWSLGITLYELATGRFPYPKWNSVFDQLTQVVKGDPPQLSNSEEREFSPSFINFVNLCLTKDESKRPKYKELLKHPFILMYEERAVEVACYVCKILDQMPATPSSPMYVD

[26] = target: Mitogen-activated protein kinase 12 (Homo sapiens) (UniProt P53778); conditions: Compound concentration 100.0 nM
Mitogen-activated protein kinase 12 (Homo sapiens), sequence (P53778 whole entry, canonical isoform): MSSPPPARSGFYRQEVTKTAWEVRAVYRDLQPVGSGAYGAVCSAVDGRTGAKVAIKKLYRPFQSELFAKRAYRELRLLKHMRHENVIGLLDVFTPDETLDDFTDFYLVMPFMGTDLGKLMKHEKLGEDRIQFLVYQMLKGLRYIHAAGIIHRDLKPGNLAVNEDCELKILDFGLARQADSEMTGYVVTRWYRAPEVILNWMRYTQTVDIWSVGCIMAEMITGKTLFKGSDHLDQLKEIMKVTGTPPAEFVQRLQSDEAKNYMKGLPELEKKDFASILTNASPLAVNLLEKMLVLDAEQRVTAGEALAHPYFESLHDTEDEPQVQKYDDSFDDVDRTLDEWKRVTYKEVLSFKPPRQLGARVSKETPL

[27] = target: Casein kinase I isoform delta (Homo sapiens) (UniProt P48730); conditions: Compound concentration 100.0 nM
[28] = target: NUAK family SNF1-like kinase 2 (Homo sapiens) (UniProt Q9H093); conditions: Compound concentration 100.0 nM
[29] = target: Cyclin-dependent kinase 11A (Homo sapiens) (UniProt Q9UQ88); conditions: Compound concentration 100.0 nM
[30] = target: Mitogen-activated protein kinase kinase kinase 11 (Homo sapiens) (UniProt Q16584); conditions: Compound concentration 100.0 nM
Mitogen-activated protein kinase kinase kinase 11 (Homo sapiens), sequence (Q16584 whole entry, looked up): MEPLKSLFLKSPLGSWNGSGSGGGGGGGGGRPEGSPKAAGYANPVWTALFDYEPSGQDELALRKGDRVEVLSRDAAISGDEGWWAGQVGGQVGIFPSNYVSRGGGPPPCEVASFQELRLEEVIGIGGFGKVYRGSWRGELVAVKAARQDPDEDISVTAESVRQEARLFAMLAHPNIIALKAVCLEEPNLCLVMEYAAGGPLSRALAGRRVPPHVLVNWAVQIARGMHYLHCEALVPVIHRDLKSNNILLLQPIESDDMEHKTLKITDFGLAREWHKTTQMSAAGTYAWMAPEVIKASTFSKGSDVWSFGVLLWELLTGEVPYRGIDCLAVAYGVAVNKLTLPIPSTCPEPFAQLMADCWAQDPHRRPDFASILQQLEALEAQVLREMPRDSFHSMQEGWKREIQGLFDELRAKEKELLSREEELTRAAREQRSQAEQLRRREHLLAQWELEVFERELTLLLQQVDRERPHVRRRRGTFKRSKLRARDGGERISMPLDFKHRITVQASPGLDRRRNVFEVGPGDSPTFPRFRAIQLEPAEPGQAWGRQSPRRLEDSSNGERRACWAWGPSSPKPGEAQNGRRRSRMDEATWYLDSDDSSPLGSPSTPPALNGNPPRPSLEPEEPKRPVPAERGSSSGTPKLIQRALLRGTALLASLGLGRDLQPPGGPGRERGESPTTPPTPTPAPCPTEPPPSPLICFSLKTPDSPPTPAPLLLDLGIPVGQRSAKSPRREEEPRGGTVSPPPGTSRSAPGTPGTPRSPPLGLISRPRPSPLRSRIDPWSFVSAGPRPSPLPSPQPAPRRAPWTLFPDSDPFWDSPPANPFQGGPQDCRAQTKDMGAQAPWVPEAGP

[31] = target: Cyclin-dependent kinase 4 (Homo sapiens) (UniProt P11802); conditions: Compound concentration 100.0 nM
[32] = target: Myosin-IIIb (Homo sapiens) (UniProt Q8WXR4); conditions: Compound concentration 100.0 nM
Myosin-IIIb (Homo sapiens), sequence (Q8WXR4 whole entry): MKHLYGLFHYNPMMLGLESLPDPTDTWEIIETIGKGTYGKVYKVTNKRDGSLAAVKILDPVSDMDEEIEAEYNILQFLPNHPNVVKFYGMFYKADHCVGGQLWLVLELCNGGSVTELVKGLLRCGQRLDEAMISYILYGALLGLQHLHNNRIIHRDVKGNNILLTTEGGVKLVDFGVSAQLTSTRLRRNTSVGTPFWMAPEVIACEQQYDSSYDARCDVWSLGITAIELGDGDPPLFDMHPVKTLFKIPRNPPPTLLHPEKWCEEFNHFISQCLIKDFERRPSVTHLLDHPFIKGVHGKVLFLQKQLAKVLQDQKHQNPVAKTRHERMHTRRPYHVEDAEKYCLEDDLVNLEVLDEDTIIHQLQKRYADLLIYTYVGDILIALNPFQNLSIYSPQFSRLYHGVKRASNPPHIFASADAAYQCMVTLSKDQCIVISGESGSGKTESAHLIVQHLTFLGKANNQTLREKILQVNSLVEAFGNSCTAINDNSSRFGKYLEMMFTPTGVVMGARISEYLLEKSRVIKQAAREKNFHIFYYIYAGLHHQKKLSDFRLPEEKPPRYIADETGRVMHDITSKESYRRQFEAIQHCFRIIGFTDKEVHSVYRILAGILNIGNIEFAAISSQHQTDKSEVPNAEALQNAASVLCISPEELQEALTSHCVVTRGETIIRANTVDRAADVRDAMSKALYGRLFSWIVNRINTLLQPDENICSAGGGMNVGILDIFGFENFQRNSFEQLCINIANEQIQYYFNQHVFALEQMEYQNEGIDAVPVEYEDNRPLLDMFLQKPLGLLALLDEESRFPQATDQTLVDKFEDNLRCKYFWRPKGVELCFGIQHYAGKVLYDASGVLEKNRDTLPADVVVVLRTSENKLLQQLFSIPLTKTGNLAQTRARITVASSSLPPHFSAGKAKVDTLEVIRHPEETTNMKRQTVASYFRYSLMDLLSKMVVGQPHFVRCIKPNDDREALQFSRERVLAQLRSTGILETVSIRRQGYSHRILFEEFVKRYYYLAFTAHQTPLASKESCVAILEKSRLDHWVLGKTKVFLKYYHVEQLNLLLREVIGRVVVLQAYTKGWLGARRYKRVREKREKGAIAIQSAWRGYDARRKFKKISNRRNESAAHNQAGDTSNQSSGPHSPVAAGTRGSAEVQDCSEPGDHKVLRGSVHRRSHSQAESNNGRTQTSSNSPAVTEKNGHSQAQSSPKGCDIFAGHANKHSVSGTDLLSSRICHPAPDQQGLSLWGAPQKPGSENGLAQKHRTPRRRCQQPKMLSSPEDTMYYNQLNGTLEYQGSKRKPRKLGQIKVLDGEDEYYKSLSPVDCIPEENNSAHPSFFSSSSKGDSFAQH

[33] = target: T2, Alpha-2C adrenergic receptor (Homo sapiens) (UniProt P18825); conditions: Compound concentration 10.0 uM
T2 sequence (whole entry): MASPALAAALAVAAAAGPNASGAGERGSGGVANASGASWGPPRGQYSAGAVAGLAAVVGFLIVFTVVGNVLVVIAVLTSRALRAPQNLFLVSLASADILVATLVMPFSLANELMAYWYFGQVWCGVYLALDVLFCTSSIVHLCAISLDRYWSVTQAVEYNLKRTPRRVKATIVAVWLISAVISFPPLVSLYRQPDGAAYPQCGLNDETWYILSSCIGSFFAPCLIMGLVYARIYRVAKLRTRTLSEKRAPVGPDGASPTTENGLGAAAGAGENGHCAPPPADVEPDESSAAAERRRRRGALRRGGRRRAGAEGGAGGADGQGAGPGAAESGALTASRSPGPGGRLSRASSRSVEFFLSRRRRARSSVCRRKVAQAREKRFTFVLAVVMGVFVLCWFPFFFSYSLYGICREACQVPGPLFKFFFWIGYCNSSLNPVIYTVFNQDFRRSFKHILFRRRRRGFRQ

SMILES | residual activity [1] [%] | residual activity [2] [%] | residual activity [3] [%] | residual activity [4] [%] | inhibition [5] [%] | residual activity [6] [%] | residual activity [7] [%] | residual activity [8] [%] | residual activity [9] [%] | residual activity [10] [%] | inhibition [11] [%] | residual activity [12] [%] | residual activity [13] [%] | residual activity [14] [%] | residual activity [15] [%] | residual activity [16] [%] | residual activity [17] [%] | residual activity [18] [%] | residual activity [19] [%] | residual activity [20] [%] | also measured
CC(C)CC(=O)N1CCc2nc(-c3ccc(Br)cc3)nc(N(C)Cc3ccccc3)c2C1 [THPP-1-NC] | 100 | 100 | 75 | 100 | 3 | 80 | 78 | 100 | 78 | 100 | 4.18 | 94 | 87 | 82 | 100 | 100 | 100 | 100 | 100 | 100 | residual activity [21]: 86%; residual activity [22]: 64%; residual activity [23]: 100%; residual activity [24]: 100%; residual activity [25]: 97%; residual activity [26]: 79%; residual activity [27]: 83%; residual activity [28]: 100%; residual activity [29]: 100%; residual activity [30]: 100%; residual activity [31]: 93%; residual activity [32]: 78%; inhibition [33]: 48%
COCCOc1nc(-c2ccc(Cl)nc2)nc2c1CN(C(=O)c1ncn3ccccc13)CC2 [THPP-1] | 100 | 88 | 73 | 100 | -1.4 | 82 | 91 | 100 | 93 | 98 | -4.03 | 83 | 72 | 89 | 100 | 100 | 100 | 100 | 100 | 100 | residual activity [21]: 70%; residual activity [22]: 47%; residual activity [23]: 100%; residual activity [24]: 100%; residual activity [25]: 100%; residual activity [26]: 72%; residual activity [27]: 84%; residual activity [28]: 100%; residual activity [29]: 100%; residual activity [30]: 100%; residual activity [31]: 100%; residual activity [32]: 67%; inhibition [33]: 1.3%
